The values that follow come from patent publication US20200165572A1, “ENGINEERED SUBSTRATES FOR HIGH-THROUGHPUT GENERATION OF 3D MODELS OF TUMOR DORMANCY, RELAPSE AND MICROMETASTASES FOR PHENOTYPE SPECIFIC DRUG DISCOVERY AND DEVELOPMENT” (Arizona Board of Regents on behalf of Arizona State …, priority 2015, published 2020).

Entries after “also recorded” stand apart in the source; their conditions may differ. Read-outs that look alike come from different tables or passages of the source. Peptide text beside a SMILES is read from it. * marks the point of attachment. Cbz = O=C(OCc1ccccc1)*; CH2F = FC*

In one data set the test system is NIH3T3-T24 3DTMs. Nature of the data set: Drug efficacy on NIH3T3-T24 3DTM viability. In kind it is cell-based, human, murine. The method, then: After three important tumor phenotypes were captured on Amikagels, we used Amikagel-3DTM platform for high throughput drug screens against those specific phenotypes. T24 (alone), and NIH3T3-T24 3DTMs were exposed to different doses of the DNA-damaging drug, mitoxantrone (31) or the microtubule-stabilizing drug, docetaxel for 96 hours (32). Co-culture 3DTMs were treated with collagenase to allow their disassembly before cell-viability measurement. It was noticed that collagenase treatment enabled very easy diassembly of the co-culture 3DTMs, supporting our previous finding of ECM production.

The next data set has as its system CHOP. Nature of the data set: CHOP expression by western blotting. Format: cell-based, human. As to conditions: calcimycin 0.5-μM. On the procedure:
[…] The lysates were then sonicated thrice for 10-15 seconds on ice and collected by centrifugation (16,000 rpm, 20 minutes, 4° C.). Supernatants containing the whole cell protein were stored at −20° C. for subsequent use.
BCA assay was used to quantify the total protein content of the cell lysates. Equivalent quantities of whole cell proteins (4 μg) were combined with 2× Laemmli buffer containing 5% β-mercaptoethanol, and were heat denatured for 5 minutes at 95° C. Equal amounts of protein (4 μg) were then loaded into to the wells of pre-cast gels and run for 35 minutes at 200 V in running buffer (25 mM Tris, […], and 0.1% SDS, pH=8.3). The proteins were transferred to a methanol-activated Hybond PVDF membrane for 30 minutes at 20 V in the transfer buffer (25 mM Tris, 190 mM glycine, and 20% methanol, pH=8.3). The Hybond PVDF membrane was rinsed with 1×PBST and blocked with 3% blocking buffer 3× for 5 minutes each. The membrane was then incubated with the primary antibody for 12 hours at 4° C. (1:1000 CHOP D46F1 Rabbit mAb primary antibody) and (1:5000 f-actin Rabbit Ab primary antibody). […]
Area of the proteins actin and CHOP on the […] membranes were measured using image-J software. The CHOP proteins from treatment samples were then normalized to their actin content and expressed which was further expressed as a percentage of the live control.
For orientation: A western blot detects proteins with antibodies after separation by electrophoresis.

The subject of the next data set is dormant 3DTMs. Nature of the data set: Intracellular calcium imaging. Format: cell-based, human. The conditions noted are these: 3-hour treatment. On the procedure:
Dormant 3DTMs grown on AM3 Amikagels were treated with calcimycin (0.5 and 5 μM) with calcium (5 mM) and calcium liposomes (175 μM) for 3 hours (3 dormant 3DTMs each). Following 3 hours, the 3DTMs were disassembled using rapid pipetting and cells were collected by centrifugation. The cells were washed with 1×PBS and resuspended in 50 μL cell culture media+50 μL Fluo-4 dye solution (prepared as per vendor's recommendation). After incubation for 60 minutes, the cells were imaged at excitation: 494 nm, emission: 516 nm. Green color fluorescence was used as an indicator of intracellular calcium concentration. Intracellular calcium fluorescence was quantified using imageJ.

The subject of data set [1] is dormant T24 3DTMs. As to conditions: for effect of pan-caspase inhibition on thapsigargin-bortezomib induced cell death: dormant T24 spheroids.
Description: (§1) Different concentrations (12.5, 25, 50 and 100 μM) of the anticancer drugs docetaxel, (10-40 μM) mitoxantrone, or (250-500 μM) thioTEPA were added to 3DTMs formed after 5-7 days of initial cell seeding on Amikagel. Drugs were added to 3DTMs of T24 cells co-cultured with NIH3T3 murine fibroblasts on day 5, but added to 3DTMs of T24 cells alone on day 7 due to the different times required for their formation After 96 hours of drug exposure, 3DTMs were disassembled using 50 μl of 5 mg/ml collagenase for 20 minutes to allow disassembly for co-culture spheroids, and cell viability was assessed by Live/Dead® staining followed by flow cytometry. 3DTM viability was also measured using MTT/XTT assay as described previously [28]. […] A calcium concentration of 5 mM was used with calcimycin ionophore of different concentrations (0.1, 0.5, 1, 5 and 10 μM) were used to induce cell death. Calcium liposomes were also added at a concentration of 175 μM to the dormant cells.
(§2) Viability of 3DTMs was also determined using the Live-Dead® (Calcein AM-Ethidium homodimer) staining assay. Fresh serum free DMEM media, containing a final concentration of 1 μM of calcein AM and 2 μM of ethidium homodimer-1 (EthD-1), was added to the 3DTMs, and fluorescence imaging was carried out using a Zeiss fluorescence microscope after incubating the reagents for 20 minutes. Green fluorescence emission of calcein-AM inside the live cells was detected using 38 HE filter set (Excitation: 470/40; Emission: 525/50) and red fluorescence of nucleic acid bound-EthD-1 was detected using a 43 HE filter set (Excitation: 550/25; Emission: 605/70). The extent of red and green fluorescence were indicative of the extent of viable and dead cells, respectively, in the 3DTM.
(§3) To quantify the percent dead cells using flow cytometer following drug treatment, 3DTMs were disassembled using collagenase as described previously (whenever necessary). Disassembled cells were suspended in 1×PBS containing a final concentration of 1 μM of Calcein AM and 2 μM of Ethidium Homodimer-1 (EthD-1). After incubating for 20 minutes, fluorescence images were collected as described in previous sections. Cell viability was further quantified using flow cytometry on the same sample using BD FACSAria™ III. Red fluorescence of EthD-1 was detected using a 43 HE filter set (Excitation: 550/25; Emission: 605/70).
The subject of data set [2] is dormant T24 3DTMs. Nature of the data set: cells. The conditions noted are these: Homo sapiens, 24 h, read-out: LC50.
Description: as §1, §2, §3
A further data set concerns T24 bladder cancer cells. Nature of the data set: Cell cycle analysis of T24 3DTMs. In kind it is cell-based, human. On the procedure:
Following five days of incubation on AM3 Amikagels, 3DTMs of T24 cells with NIH3T3 murine fibroblast cells were harvested for cell cycle analysis. Four or five individual 3DTMs of T24 cells alone or UMUC3 cells alone were harvested on the 7th day after seeding on Amikagels, collected in an eppendorf tube. 50 μl of 5 mg/ml collagenase was added to 3DTMs prepared using fibroblast helper cells for 30 minutes at 37° C. in order to facilitate their disassembly by gentle pipetteing. Single cell 3DTMs were disassembled using manual pipetting. Disassembled 3DTM cells were then centrifuged at 200 r.c.f. in order to collect the cell pellet. The pellet was resuspended in a solution of 1% v/v 1× Triton-X, 5% (v/v) fetal bovine serum (FBS), 50 μg/mL propidium iodide, and 0.006-0.01 units/mL ribonuclease A. After incubation for 30 minutes on ice, cells were analyzed for their cell cycle profiles using flow cytometry; the propidum iodide (PI) signal was detected using an excitation at 535 nm and emission at 617 nm. Voltages of the FL2-A, SSC and FSC channels were adjusted in order to obtain best representative peaks for alignment of 2n (diploidy—G0/G1) peak to 200 intensity units during flow cytometry. FL2A (FL2-Area) provides the information regarding the pulse area of the emitted fluorescence signal (total cell fluorescence) whereas […] light from the sample. FSC is a measure of diffracted light from the sample proportional to cell surface area or size and SSC is proportional to cell granularity or internal complexity.

Data set [3] concerns T24 cells in 2D culture. In words: cells. The conditions noted are these: Homo sapiens, T-24, 96 h, read-out: LC50. Format: cell-based. The method, then: Cell death (%) after exposure of 5000 T24 cells to docetaxel for 96 hours after 2D cell culture measured by using MTT assay (circles).
Data set [4] concerns dormant T24 3DTMs. Nature of the data set: Escape from dormancy after transfer of T24 3DTMs from AM3 to AM1 Amikagel. In kind it is cell-based, human. The conditions noted are these: for microcolony formation: 100 μM pre-treatment, 15 days after transfer to AM1. The method, then:
T24 3DTMs were first formed on AM3 Amikagels, and transferred to AM1 Amikagels on the seventh day following initial cell seeding, in order to investigate the role of chemo-mechanical properties of Amikagels on 3DTM fate, dormancy and escape from dormancy. Upon transfer, 3DTMs were monitored for cell spreading and motility on the gel for an additional 7 days. After 7 days, cell cycle analysis was carried out on the all 3DTMs as described in the previous sections.
Long-term experiments were also carried out where 3DTMs were continuously monitored for 15 days after their tranfer from AM3 gel to AM1 gel. In order to study the effect of drug treatment, T24 3DTMs were first treated with 0-100 μM docetaxel for 96 hours after 7 days of initial seeding of cells on AM3 gel. After 96 hours of this drug treatment, the 3DTMs were transferred to AM1 gel to study how different chemo-mechanical properties influenced escape from dormancy. Similar studies were also performed using ROCK inhibitor Y-27632 (20 μM).

In data set [5] the test system is T24 cells in 2D culture. As to conditions: cited from earlier work.

For `S=P(N1CC1)(N1CC1)N1CC1` [ThioTEPA], the “response of NIH3T3-T24 3DTMs” value with NIH3T3-T24 3DTMs (up to a concentration as high as 500 μM) is listed as “resistant”.
Consider `CNc1ccc2oc(C[C@H]3O[C@@]4(CC[C@H]3C)O[C@H]([C@H](C)C(=O)c3ccc[nH]3)[C@H](C)C[C@H]4C)nc2c1C(=O)O` [calcimycin], for which, in the data set with CHOP, the CHOP protein expression entry is on record as “No CHOP protein expression”. In addition, the “intracellular calcium fluorescence compared to DMSO control” value in the data set with dormant 3DTMs was “significantly higher”. Further, the “cell death dose response” value with dormant T24 3DTMs [1] (24-hour time point) is listed as “concentration dependent cell death”. In addition, the CC50 in the data set with dormant T24 3DTMs [2] is approximately 10 µM.
`CC(=O)O[C@@]12CO[C@@H]1C[C@H](O)[C@@]1(C)C(=O)[C@H](O)C3=C(C)[C@@H](OC(=O)[C@H](O)[C@@H](NC(=O)OC(C)(C)C)c4ccccc4)C[C@@](O)([C@@H](OC(=O)c4ccccc4)[C@H]21)C3(C)C` [docetaxel]: in the data set on T24 bladder cancer cells (drug-treated dormant T24 3DTMs), the “cells in G2/M phase of treated dormant T24 3DTMs” value is on record as “did not change the number of cells in G2/M phase” and the “cells in pre G0/G1 phase of treated dormant T24 3DTMs” value was “increase in the number of cells in the pre G0/G1 phase”. Moreover, the CC50 in the data set on T24 cells in 2D culture [3] was 10 µM. The “cell escape from mother 3DTM” value with dormant T24 3DTMs [4] (12.5 μM-100 μM for 96 hours on AM3, then transfer to AM1) was “significantly reduced the number of cells escaping; also recorded: significantly lesser number of cells escaped”. Also, the microcolony formation entry with dormant T24 3DTMs [4] is listed as “drastically reduced”. In addition, in the data set with dormant T24 3DTMs [4] (listed as Docetaxel), the microcolony formation entry is “inhibited microcolony formation”. In the data set on dormant T24 3DTMs [1] (100 μM, 96 hours, compared to live control), the cell death is listed as approximately 10%. Moreover, the “effect on cell viability of T24 3DTMs” value in the data set on dormant T24 3DTMs [1] (different doses, 96 hours of exposure, listed as Docetaxel) was “did not have any impact on the cell viability”.
In the case of `O=C1c2c(O)ccc(O)c2C(=O)c2c(NCCNCCO)ccc(NCCNCCO)c21` [mitoxantrone], the “response of NIH3T3-T24 3DTMs” value in the data set on NIH3T3-T24 3DTMs (doses as high as 80 μM, 96 hours) is reported as “resistant”. The CC50 in the data set with T24 cells in 2D culture [5] is approximately 9 µM.
On to `C[C@@H](N)[C@H]1CC[C@H](C(=O)Nc2ccncc2)CC1` [Amikagel Y-27632, Y-27632], for which the “cell cycle profile of dormant cells on AM3 gels” value in the data set on T24 bladder cancer cells (20-μM, 96 hours) was “did not observe any changes in the cell cycle profile”. Also, in the data set with dormant T24 3DTMs [4] (20-μM for 96 hours on AM3 gel, then transfer to AM1 gel), the “cell escape from mother spheroid” value was “increase in the number of cells escape”.
Consider `COC(=O)C[C@H](NC(=O)[C@H](C)NC(=O)[C@@H](NC(=O)OCc1ccccc1)C(C)C)C(=O)CF` [zVAD-fmk] (Cbz-Val-Ala-Asp(OMe)-CH2F), for which the “effect of pan-caspase inhibition on calcimycin-induced death” value in the data set on dormant T24 3DTMs [1] (24-hour, 10-μM or 5-μM calcimycin, 5 mM calcium, 5-μM zVAD-fmk) was “did not rescue”. Also, the “effect of pan-caspase inhibition on thapsigargin-bortezomib induced cell death” value in the data set on dormant T24 3DTMs [1] (96 hours) is given as “reversed”; in the data set on dormant T24 3DTMs [1] (96 hours, listed as z-VAD-fmk), “significantly rescued”.
`C/C=C(/C)C(=O)O[C@H]1C(C)=C2[C@H]([C@@H]1OC(=O)CCCCCCC)[C@@](C)(OC(C)=O)C[C@H](OC(=O)CCC)[C@@]1(O)[C@H]2OC(=O)[C@@]1(C)O` [thapsigargin] displayed a cell death in the data set with dormant T24 3DTMs [1] (single agent, 15-μM, 96 hour treatment) of 50%.
For `[Ca+2].[Cl-].[Cl-]` [calcium, calcium chloride], in the data set on dormant 3DTMs, the “intracellular calcium fluorescence compared to DMSO control” value is recorded as “significantly higher”. For the same compound, the “impact on dormant cell viability” value in the data set with dormant T24 3DTMs [1] (free calcium in cell culture media 40 mM, 96 hours) is “minimal impact on dormant cell viability”.
